Where “and” joins values, the source holds several entries; their conditions need not be identical. Identical values can stand only once.
Experiments:
[1] = molecular target: T1, HeLa cell telomerase (Homo sapiens, UniProt O14746); assay: HeLa cell telomerase assay; format: biochemical; conditions: for IC50: HeLa cell telomerase
T1 construct: endogenous in cells; host or cells: HeLa cells (human cervical tumor)

[2] = system: MCF-7; assay: Growth inhibition (MTT), MCF-7; format: cell-based; conditions: Homo sapiens, MCF7, 144 h, 6 days
Description: (§1) Exponentially growing cells (1-2×10^3 cells, unless specified otherwise) in 0.1 ml medium were seeded on day 0 in a 96-well microtiter plate. On day 1, 0.1 ml aliquots of medium containing graded concentrations of test analogs were added in duplicate to the cell plates. After incubation at 37° C. in a humidified incubator for 6 days, the plates were centrifuged briefly and 100 μl of the growth medium was removed. Cell cultures were incubated with 50 μl of 3-(4,5-dimethylthiazol-2-yl)-2,5-diphenyl-tetrazolium bromide, (MTT) at a concentration of 1 mg/ml in Dulbecco's phosphate buffered saline (PBS)) for 4 hr at 37° C. The resulting purple formazan precipitate was solubilized with 200 μl of 0.04 N HCl in isopropyl alcohol. Absorbance was monitored in a BioRad Model 3550 Microplate Reader at a test wavelength of 570 nm and a reference wavelength of 630 nm. The absorbance was transferred to a PC 486 computer. The IC50 values were determined by a computer program (EZ-ED50) that fits all the data to the following four-parameter logistic equation: [formula]
(§2) where Amax is the absorbance of control cells, Amin is the absorbance of cells in the presence of highest agent concentration, Y is the observed absorbance, X is the agent concentration, IC50 is the concentration of agent that inhibits the cell growth by 50% of control cells (based on the absorbance) and n is the slope of the curve.
(§3) This is due to the extracellular dephosphorylation of the mono-, di-, or triphosphates by […] or 5′-nucleotidase back to the nucleoside. With this in mind, the inventors used only nucleosides rather than nucleoside triphosphates in these studies. Cultured tumor cells were incubated with selected nucleosides at graded concentrations for 6 days and the growth inhibition was determined by the standard MTT assay.

[3] = system: MDA-231; assay: Growth inhibition (MTT), MDA-231; format: cell-based; conditions: Homo sapiens, MDA-MB-231, 144 h, 6 days
Description: as §1, §2, §3

[4] = system: BT-20; assay: Growth inhibition (MTT), BT-20; format: cell-based; conditions: Homo sapiens, BT-20, 144 h, 6 days
Description: as §1, §2, §3

[5] = system: DU145; assay: Growth inhibition (MTT), DU145; format: cell-based; conditions: Homo sapiens, DU-145, 144 h, 6 days
Description: as §1, §2, §3

[6] = system: PC3; assay: Growth inhibition (MTT), PC3; format: cell-based; conditions: Homo sapiens, PC-3, 144 h, 6 days
Description: as §1, §2, §3

[7] = system: SKBR3; assay: Growth inhibition (MTT), SKBR3; format: cell-based; conditions: Homo sapiens, SK-BR-3, 144 h, 6 days
Description: as §1, §2, §3

[8] = system: Raji; assay: Growth inhibition (MTT), Raji; format: cell-based; conditions: Homo sapiens, 144 h, 6 days
Description: as §1, §2, §3

[9] = molecular target: T2, human cancer telomerase (Homo sapiens, UniProt O14746); assay: Nucleoside triphosphate as telomerase substrate, dGTP replaced in modified reaction; format: biochemical; conditions: for incorporation into telomeric ladders, replacing dGTP: modified assay
T2 construct: endogenous in cells; host or cells: human cancer cells

[10] = molecular target: T3, human 293 cell telomerase (Homo sapiens, UniProt O14746); assay: Conventional telomerase assay (32P-dGTP as radiolabel substrate); format: biochemical; conditions: for Inhibition of 293 Telomerase, Conventional Assay *dGTP: up to 2 mM
T3 construct: with 20 μl of S100 enzyme extract; endogenous in cells; host or cells: 293 cells (transformed human embryonic kidney), S100 extract
Description: (§4) Telomerase was prepared from transformed human embryonic kidney 293 cell line. Human embryonic kidney 293 cells were grown in Joklik's modified MEM niedium (Sigma, St Louis, Mo.) supplemented with 5% fetal bovine serum at 37° C. in a humidified atmosphere with 5% CO2. The cells were subcultured at 1-2×10^5 cells/ml twice a week. When the cells grew to approximately 1×10^6 cells/ml, the cells (˜2×10^9 cells) were centrifuged and transferred into polypropylene centrifuge (50 ml) tubes and kept on ice. The cells were then centrifuged in a (Beckman GS-6R) centrifuge at 1200 RPM for 10 minutes at 4° C., and resuspended in PBS. The washed cells were resuspended in 15 ml Hypobuffer Mix (10 mM HEPES, pH 8.0, 3 mM KCl, 1 mM MgCl2, 1 mM dithiothreitol, 1 μM leupeptin, 0.1 mM PMSF, 10 μM pepstatin, 0.83 μg/ml chymostatin, 0.83 μg/ml antipain, and 43.2 units/ml RNase Guard) and centrifuged. The cell pellets were resuspended in 0.75×volumes Hypobuffer [Hypobuffer Mix+40 units/ml RNase Guard (Pharmacia, N.J.) to allow the cells to swell. The cell suspensions were homogenized to allow the telomerase to “leak” into the cytosolic fraction. The lysate was then poured into new, autoclaved, 3 ml polyallomer ultracentrifuge tubes and centrifuged at 100,000×g for 1 hour at 4° C. A top lipid layer was carefully removed and discarded, and the supernatant was collected. 1/50 of the volume of 5 M NaCl was added to the clear supernatant fluid to achieve a final concentration of 0.1 M. Sterile glycerol was added until the final glycerol concentration was 20%. The enzyme solution was aliquoted into Eppendorf tubes and quickly frozen in liquid nitrogen and stored at −70° C.
The assay is based on the ability of the telomerase enzyme in the S100 fractions to recognize an 18-base DNA primer with the DNA sequence (TTAGGG)3. DNA polymerization initiates from the 3′-OH group of the oligonucleotide. By reading from its complementary internal RNA template, telomerase adds a repeated set of 5′-TTAGGG-3′ to the original 18-base primer. Non-synchronous “starts” and “terminations” among the different enzyme complexes result in a degenerative set of different length DNA primers occurring in 6-base increments. Incorporation of [α-^32P]dGTP at the guanine positions of the 5′-TTAGGG-3′ sequence allows the newly synthesized DNA fragments to be visualized by autoradiography. The resulting image forms the characteristic “ladder” structure that is used to identify telomerase activity. The images are scanned using a phosphoimager or laser densitometer (Molecular Dynamics, Sunnyvale, Calif.). Comparisons of the total volumes under the corresponding peaks are used to quantitate the total amount of [α-^32P] incorporated in the primer extension reaction.
The telomerase assay was initiated by mixing 20 μl of 2×reaction mix (100 mM Tris-OAc, pH 8.5, 100 mM KOAc, 10 mM β-mercaptoethanol, 2 mM spermidine, 2 mM MgCl2, 2 mM dATP, 2 mM dTTP, 2 μM oligo primer, potential inhibitors of interest at the appropriate concentration, and 50 μCi [α^32-P]dGTP) with 20 μl of S100 enzyme extract. The reaction mixture was then incubated at 30° C. for 1 hour. The reaction was stopped by incubating sequentially with 50 μl of the stop solution (10 mM Tris pH 7.5, 20 mM EDTA, 0.1 mg/ml RNase A) and 50 μl of deproteinase solution (10 mM Tris pH 7.5, 0.5% SDS, 0.3 mg/ml Proteinase K). The mixture was extracted with 50% phenol/50% chloroform (v/v). The DNA was then precipitated by adding 2.5×volumes of cold EtOH and letting it stand overnight at −70° C. The DNAs were separated on an 8% polyacrylamide/7M urea denaturing gel at 1600 V for 1.5 hours. The gel was dried and exposed to Kodak XAR-5 film to gel in −70° C. Typical autoradiographic exposures required 3-14 days.

[11] = molecular target: T4, human telomerase (Homo sapiens, UniProt O14746); assay: Cell-free telomerase inhibition, conventional or modified assay not stated; format: biochemical; conditions: for IC50: Summary values, assay variant not stated, read-out: IC50
T4 construct: telomerase in S100 extracts of transformed human fetal kidney tumor 293 cells (a processive telomerase); endogenous in cells; host or cells: human cells, (S100 extract)
Description: Selected nucleoside triphosphates were tested in one or both of the “conventional” or “modified” telomerase assays described in Methods using the human processive and the CHO non-processive telomerases. Initially, three chain-terminators were selected: 2′,3′-dideoxythymidine triphosphate (ddTTP), 3′-fluoro-2′,3′-dideoxythymidine triphosphate (F-ddTTP), and 3′-azido-2′-, 3′-dideoxythymidine triphosphate (AZ-ddTTP) as prototype agents to investigate whether they could inhibit telomerase activity. The three compounds are dTTP analogs without a 3′-OH group for subsequent chain elongation. They may either incorporate into the telomere sequence and terminate further chain elongation or compete directly with dTTP for the substrate binding site in the telomerase reaction. In either case, telomerase activity is inhibited.

[12] = molecular target: T3, human 293 cell telomerase; assay: Modified telomerase assay (32P-dATP as radiolabeled substrate); format: biochemical
Description: as §4
In the conventional telomerase assay, the concentrations of both non-radiolabeled nucleotides, dATP and dTTP, are 1 mM, and the concentration of the radiolabeled [^32P]dGTP is 1.56 μM. Because of the high concentration of dATP and dTTP, the standard assay may not be suitable for determining the potential telomerase inhibition of any “Adenine or Thymine” analogs. […] All other chemicals and reaction conditions are identical to the conventional assay.

T1 sequence (O14746 whole entry): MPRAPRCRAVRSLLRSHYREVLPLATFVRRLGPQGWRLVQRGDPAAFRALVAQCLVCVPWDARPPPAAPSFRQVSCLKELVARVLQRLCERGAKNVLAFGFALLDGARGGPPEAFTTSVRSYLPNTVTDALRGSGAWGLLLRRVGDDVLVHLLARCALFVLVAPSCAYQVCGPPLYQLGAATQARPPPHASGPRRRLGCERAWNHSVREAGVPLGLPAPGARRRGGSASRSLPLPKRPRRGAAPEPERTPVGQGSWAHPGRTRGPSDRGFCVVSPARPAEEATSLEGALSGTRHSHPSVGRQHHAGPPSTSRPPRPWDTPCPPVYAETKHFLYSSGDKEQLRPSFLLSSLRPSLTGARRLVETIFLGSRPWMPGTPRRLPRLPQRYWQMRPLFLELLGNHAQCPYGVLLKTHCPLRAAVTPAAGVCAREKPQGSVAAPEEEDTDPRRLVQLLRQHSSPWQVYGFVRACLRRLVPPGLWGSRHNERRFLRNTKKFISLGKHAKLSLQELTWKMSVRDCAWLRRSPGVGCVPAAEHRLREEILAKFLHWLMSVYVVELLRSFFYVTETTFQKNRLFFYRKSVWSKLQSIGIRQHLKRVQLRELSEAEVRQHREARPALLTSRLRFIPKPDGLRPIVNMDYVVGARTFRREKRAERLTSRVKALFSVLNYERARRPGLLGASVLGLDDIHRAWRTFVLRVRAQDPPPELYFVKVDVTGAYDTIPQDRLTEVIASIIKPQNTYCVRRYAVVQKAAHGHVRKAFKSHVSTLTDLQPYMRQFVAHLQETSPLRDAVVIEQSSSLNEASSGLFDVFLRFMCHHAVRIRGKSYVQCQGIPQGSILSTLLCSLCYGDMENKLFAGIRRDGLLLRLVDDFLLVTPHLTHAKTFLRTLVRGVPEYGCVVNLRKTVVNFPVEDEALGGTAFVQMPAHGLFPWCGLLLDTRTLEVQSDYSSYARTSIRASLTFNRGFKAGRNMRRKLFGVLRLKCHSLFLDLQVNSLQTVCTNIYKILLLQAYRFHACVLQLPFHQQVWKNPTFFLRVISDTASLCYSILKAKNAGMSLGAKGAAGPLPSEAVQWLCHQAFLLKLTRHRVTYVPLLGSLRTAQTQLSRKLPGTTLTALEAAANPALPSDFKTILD
T1 sequence (O60832 whole entry partner): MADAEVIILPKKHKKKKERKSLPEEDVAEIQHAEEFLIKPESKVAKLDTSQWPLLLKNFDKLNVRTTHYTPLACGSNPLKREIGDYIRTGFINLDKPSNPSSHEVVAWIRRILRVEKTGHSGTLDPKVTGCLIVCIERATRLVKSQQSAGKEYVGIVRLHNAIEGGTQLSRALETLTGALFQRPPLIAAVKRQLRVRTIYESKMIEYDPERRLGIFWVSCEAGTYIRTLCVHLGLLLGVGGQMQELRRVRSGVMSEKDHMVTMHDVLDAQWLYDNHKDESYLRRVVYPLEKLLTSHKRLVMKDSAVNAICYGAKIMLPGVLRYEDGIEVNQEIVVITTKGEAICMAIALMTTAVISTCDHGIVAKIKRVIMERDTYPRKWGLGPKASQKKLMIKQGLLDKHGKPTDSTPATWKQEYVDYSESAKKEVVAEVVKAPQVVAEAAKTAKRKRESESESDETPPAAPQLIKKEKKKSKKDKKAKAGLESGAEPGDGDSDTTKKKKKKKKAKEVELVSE
T1 sequence (Q9NPE3 whole entry partner): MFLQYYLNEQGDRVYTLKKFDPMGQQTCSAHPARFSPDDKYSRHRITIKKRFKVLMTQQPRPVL
T1 sequence (Q9NX24 whole entry partner): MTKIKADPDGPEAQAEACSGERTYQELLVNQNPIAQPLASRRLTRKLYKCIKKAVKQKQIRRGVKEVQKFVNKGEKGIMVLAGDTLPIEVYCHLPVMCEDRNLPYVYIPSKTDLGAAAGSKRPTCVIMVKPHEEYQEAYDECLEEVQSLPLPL
T1 sequence (Q9NY12 whole entry partner): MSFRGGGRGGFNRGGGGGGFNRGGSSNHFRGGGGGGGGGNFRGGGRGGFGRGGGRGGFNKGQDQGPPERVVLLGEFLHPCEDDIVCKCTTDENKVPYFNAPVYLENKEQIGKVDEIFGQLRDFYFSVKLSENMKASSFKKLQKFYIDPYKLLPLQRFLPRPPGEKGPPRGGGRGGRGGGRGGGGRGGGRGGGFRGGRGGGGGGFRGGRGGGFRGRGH
T4 sequence (O14746 whole entry): as the sequence (O14746 whole entry) above
T4 sequence (O60832 whole entry partner): as the sequence (O60832 whole entry partner) above
T4 sequence (Q9NPE3 whole entry partner): as the sequence (Q9NPE3 whole entry partner) above
T4 sequence (Q9NX24 whole entry partner): as the sequence (Q9NX24 whole entry partner) above
T4 sequence (Q9NY12 whole entry partner): as the sequence (Q9NY12 whole entry partner) above
T3 sequence (O14746 whole entry): as the sequence (O14746 whole entry) above
T3 sequence (O60832 whole entry partner): as the sequence (O60832 whole entry partner) above
T3 sequence (Q9NPE3 whole entry partner): as the sequence (Q9NPE3 whole entry partner) above
T3 sequence (Q9NX24 whole entry partner): as the sequence (Q9NX24 whole entry partner) above
T3 sequence (Q9NY12 whole entry partner): as the sequence (Q9NY12 whole entry partner) above
T2 sequence (O14746 whole entry): as the sequence (O14746 whole entry) above
T2 sequence (O60832 whole entry partner): as the sequence (O60832 whole entry partner) above
T2 sequence (Q9NPE3 whole entry partner): as the sequence (Q9NPE3 whole entry partner) above
T2 sequence (Q9NX24 whole entry partner): as the sequence (Q9NX24 whole entry partner) above
T2 sequence (Q9NY12 whole entry partner): as the sequence (Q9NY12 whole entry partner) above

COc1nc(N)nc2c1ccn2[C@H]1C[C@H](O)[C@@H](CO)O1 [6-methoxy-7-deaza-2′-deoxyguanosine]
IC50 [1]: 4.9 µM

Nc1nc2c(c(=S)[nH]1)CC=N2 [6-thio-7-deaza guanine]
IC50 [2]: 84.2 µM
IC50 [3]: > 50 µM
IC50 [4]: 258 µM
IC50 [5]: > 100 µM
IC50 [6]: 120 µM
IC50 [7]: 74 µM
IC50 [8]: 84.1 µM

Cn1c(N)nc2c(ccn2[C@H]2C[C@H](O)[C@@H](CO)O2)c1=O [Compound 5, 1-N-methyl-7-deaza-2′-deoxyguanosine]
IC50 [1]: 159 µM
IC50 [2]: 57.5 µM
IC50 [3]: > 50 µM
IC50 [4]: 60.3 µM
IC50 [5]: > 50 µM
IC50 [6]: 93.4 µM
IC50 [8]: 43.4 µM

COc1nc(N)nc2c1ccn2[C@H]1C[C@H](O)[C@@H](COP(=O)(O)OP(=O)(O)OP(=O)(O)O)O1 [Compound 6, 6-Methoxy-7-deaza-2′-deoxyguanosine Triphosphate]
IC50 [1]: 4.9 µM

Cn1c(N)nc2c(ccn2[C@H]2C[C@H](O)[C@@H](COP(=O)(O)OP(=O)(O)OP(=O)(O)O)O2)c1=O [Compound 7, 1-Methyl-7-deaza-2′-deoxyguanosine Triphosphate]
IC50 [1]: 159 µM
incorporation into telomeric ladders, replacing dGTP ([9]; 1 mM dTTP, 3.12 μM [α-32P]dATP): incorporation

CSc1nc(N)nc2c1ccn2[C@H]1C[C@H](O)[C@@H](COP(=O)(O)OP(=O)(O)OP(=O)(O)O)O1 [Compound 9, 6-Thiomethyl-7-deaza-2′-deoxyguanosine Triphosphate]
inhibition in a HeLa cell telomerase assay ([1]; up to 62.5 μM): no inhibition

Nc1nc2c(ncn2[C@H]2C[C@H](O)[C@@H](COP(O)(=S)OP(=O)(O)OP(=O)(O)O)O2)c(=O)[nH]1 (stereo partly drawn) [NA013, 2′-Deoxyguanosine-5′-O-(1-thiotriphosphate)]
remaining activity at 125 µM ([10]; 0.125 mM, read-out: % of Control): 75%
remaining activity at 250 µM ([10]; 0.25 mM, read-out: % of Control): 47%
remaining activity at 500 µM ([10]; 0.5 mM, read-out: % of Control): 0%
remaining activity at 1000 µM ([10]; 1.0 mM, read-out: % of Control): 0%
remaining activity at 2000 µM ([10]; 2.0 mM, read-out: % of Control): 0%
IC50 ([10]; 293 cell telomerase): < 125 µM
Inhibition of 293 Telomerase, Conventional Assay *dGTP [10]: concentration-dependent inhibition
IC50 [11]: 81.5 µM
incorporation into telomeric ladders, replacing dGTP ([9]; 1 mM dTTP, 3.12 μM [α-32P]dATP): incorporated

Nc1nc2c(ccn2[C@H]2C[C@H](O)[C@@H](COP(=O)(O)OP(=O)(O)OP(=O)(O)O)O2)c(=O)[nH]1 [NA022, 7-Deaza-2′-Deoxyguanosine-5′-Triphosphate]
remaining activity at 1 µM ([10]; 1.0 μM, read-out: % of Control): 99%
remaining activity at 2.5 µM ([10]; 2.5 μM, read-out: % of Control): 114%
remaining activity at 5 µM ([10]; 5.0 μM, read-out: % of Control): 67%
remaining activity at 7.5 µM ([10]; 7.5 μM, read-out: % of Control): 81%
remaining activity at 10 µM ([10]; 10 μM, read-out: % of Control): 24%
remaining activity at 25 µM ([10]; 25 μM, read-out: % of Control): 27%
remaining activity at 50 µM ([10]; 50 μM, read-out: % of Control): 18%
remaining activity at 75 µM ([10]; 75 μM, read-out: % of Control): 0%
remaining activity at 100 µM ([10]; 100 μM, read-out: % of Control): 0%
IC50 ([10]; [α-32P]dGTP 1.56 μM, TTP and dATP 1 mM): 11 µM
Inhibition of 293 Telomerase, Conventional Assay *dGTP [10]: concentration-dependent inhibition
IC50 ([12]; [α-32P]dATP 3.12 μM, TTP and dGTP 1 mM): 56 µM and < 100 µM
Inhibition of 293 cell telomerase, modified assay ([12]; competing radioactive nucleotide 3.12 μM [α32P]dATP): concentration-dependent inhibition
IC50 [11]: 6.8 µM
times more potent than AZT-TP ([11]; from IC50 values): at least 50 times
Substrate of 293 Telomerase ([9]; dGTP analog): Is a substrate Produces short telomere Substrate Inhibition
concentration above which there was no activity ([9]; dGTP replaced, 1 mM dTTP, 3.12 μM [α-32P]dATP): > 1.5 mM

Source: patent US6593306B1, “Methods for modulation and inhibition of telomerase” (Board of Regents, The University of Texas Systems, priority 1995, dated 2003)
